Patent US20220380432A1, “Acylated Calcitonin Mimetics” (KeyBioscience AG, priority 2018, published 2022)
One block for each molecule: values may come before it. Numbered stars: 1 amine (or outer) side, 2 acyl side, 3 side chain; on linkers, the order of the positions; unused ones are H or OH. Bridge positions count the residues as written; N and C are the ends. Square brackets hold non-standard residues; d marks the D form. Side chains are listed from the residue outwards. Ends that are not written are not given here. Peptide text beside a SMILES is read from it. * marks the point of attachment. C18 diacid = O=C(O)CCCCCCCCCCCCCCCCC(=O)*; γGlu = O=C(O)[C@H](CCC(=O)[*:2])N[*:1]; AEEA = NCCOCCOCC(=O)O; Aib = CC(C)(N)C(=O)O

Legend:
[1] = tested on: serum albumin from humans (HSA); format: binding, man (Homo sapiens)
Procedure: FIG. 14: Competitive ligand binding assay using radio labelled salmon calcitonin (^125I-sCT) as tracer and conducted 2% serum albumin from two different species, rat (Rattus norvegicus) and man (Homo sapiens). As a tracer 0.25 nM ^125I-sCT was used. A) Competitive binding assay conducted in 2% RSA. B) Competitive binding assay conducted in 2% HSA. Data as +/−SEM. To investigate whether the improved efficacy in the acute setting of acylation 4 and 5 could be translated to man, a competitive ligand binding assay was conducted to explore acylation binding to serum albumin in rodent and man.

male ZDF rats = test: Chronic study in male ZDF rats (food intake, body weight, FBG, HbA1c, OGTT); format: in vivo, rat; details: 62-day study
Procedure: A chronic study was performed in male ZDF rats. (obese homozygous recessive (fa/fa) strain: 370) (Charles River, USA). Rats were delivered 5 weeks of age. The rats were housed 2-3 per cage.
Rats were delivered to the animal facility of Nordic Bioscience at five weeks of age (DAY −6). Rats were acclimatized for three days. HbA1c and BW was registered (DAY −3). Rats were randomized based on HbA1c (primarily) and BW (secondly) at […]. The study was initiated at DAY 1.
Animals were dosed once daily with KBP-066 or saline (vehicle). Dosing with KBP-066A11.03 was performed once every third day. Dosing was administered subcutaneously (SC) around noon.
Saline: Dosage volume was 1 mL/kg. […]
DAY −3: HbA1c measurement DAY 1: (first day of study), rats were fasted for 6 h and a BG and blood sample was taken. […] Hb1Ac is measured during the OGTT at t=120 or t=180. […]
Food intake was monitored daily. Body weight was monitored daily for first three weeks, then twice weekly after week three.
Fasting blood glucose was monitored every two weeks using Accu-Check® Avia monitoring system (Roche Diagnostics, Rotkreuz, Switzerland): Measurement was taken from the tail vein (25 G needle).
Rats were non-fasted for the first (randomization) and second (after the second OGTT) HbA1c measurement. A single drop of blood was applied to the HbA1c cassette and the HbA1c was measured using a DCA Vantage Analyzer. […]

[2] = target: T1, Calcitonin Receptor (CTR) (Homo sapiens (Human), UniProt P30988); test: cell-based or functional assay
T1 sequence: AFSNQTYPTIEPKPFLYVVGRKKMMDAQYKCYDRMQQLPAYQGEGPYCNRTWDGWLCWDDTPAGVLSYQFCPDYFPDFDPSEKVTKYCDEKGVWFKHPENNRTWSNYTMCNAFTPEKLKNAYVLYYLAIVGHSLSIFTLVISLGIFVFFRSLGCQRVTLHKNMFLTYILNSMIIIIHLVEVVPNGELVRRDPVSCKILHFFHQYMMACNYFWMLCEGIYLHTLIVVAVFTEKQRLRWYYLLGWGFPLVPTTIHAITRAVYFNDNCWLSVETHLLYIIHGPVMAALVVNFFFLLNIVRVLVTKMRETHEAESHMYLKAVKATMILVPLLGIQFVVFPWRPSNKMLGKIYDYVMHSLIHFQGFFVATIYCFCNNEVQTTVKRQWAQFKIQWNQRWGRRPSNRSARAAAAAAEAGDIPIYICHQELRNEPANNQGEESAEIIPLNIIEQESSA

Amylin Receptor (AMY-R) = target: T2, Amylin Receptor (AMY-R) (Homo sapiens (Human), UniProt P30988); test: cell-based or functional assay
T2 sequence 1: T1 sequence
T2 sequence 2: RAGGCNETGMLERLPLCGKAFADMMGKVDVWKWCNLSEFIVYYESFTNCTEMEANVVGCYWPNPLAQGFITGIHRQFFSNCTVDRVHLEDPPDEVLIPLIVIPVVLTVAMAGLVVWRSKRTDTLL

EC50 in competitive binding (in words) [1]: no differences in EC50
Molecule: CC(=O)N[C@H]1CSSC[C@@H](C(=O)NC(C)(C)C(=O)N[C@@H](CC(C)C)C(=O)NCC(=O)N[C@@H](CCCCNC(=O)COCCOCCNC(=O)COCCOCCNC(=O)CC[C@H](NC(=O)CCCCCCCCCCCCCCCCC(=O)O)C(=O)O)C(=O)N[C@@H](CC(C)C)C(=O)N[C@@H](CO)C(=O)N[C@@H](CCC(N)=O)C(=O)N[C@@H](CC(=O)O)C(=O)N[C@@H](CC(C)C)C(=O)N[C@@H](Cc2c[nH]cn2)C(=O)N[C@@H](CCCNC(=N)N)C(=O)N[C@@H](CC(C)C)C(=O)N[C@@H](CCC(N)=O)C(=O)N[C@H](C(=O)N[C@@H](Cc2ccc(O)cc2)C(=O)N2CCC[C@H]2C(=O)N[C@@H](CCCCN)C(=O)N[C@H](C(=O)N[C@@H](CC(=O)O)C(=O)N[C@H](C(=O)NCC(=O)N[C@@H](C)C(=O)N[C@@H](CC(N)=O)C(=O)N[C@@H](C)C(=O)N2CCC[C@H]2C(N)=O)C(C)C)[C@@H](C)O)[C@@H](C)O)NC(=O)[C@H]([C@@H](C)O)NC(=O)[C@H](CO)NC(=O)[C@H](CC(C)C)NC(=O)[C@H](CC(N)=O)NC(=O)[C@H](CO)NC1=O [KBP-356] (Ac-CSNLSTC[Aib]LGK([AEEA-AEEA-γGlu-C18 diacid])LSQDLHRLQTYPKTDVGANAP-NH2; disulfide 1-7 (inferred))

Molecule: CSNLSTC(AiB)LGRLSQDLHRLQTYPKTDVGANAP [KBP-066]
fasting blood glucose (in words) (male ZDF rats): reduced FBG in a dose dependent manner

β-arrestin Fold Recruitment EC50 values (10^-9 M) [2]: 0.197 µM
β-arrestin Fold Recruitment EC50 values (10^-9 M) (Amylin Receptor (AMY-R)): 0.301 µM
Molecule: Ac-CSNLSTCMLGRLSQELHRLQTYPKTDVGANAPK (not fully specified (residue 33); ends and bridges not checked) [KBP-318]
